Results reported in article PMC9598367, “Discovery and Preliminary Structure-Activity Investigation of 3-Substituted-1H-imidazol-5-yl-1H-indoles with In Vitro Activity towards Methicillin-Resistant Staphylococcus aureus” (Antibiotics, 2022).
In brackets after ≈: the same amount, converted by molar mass. Entries after “also recorded” stand apart in the source; their conditions may differ.

What was measured:
[1] = system: Staphylococcus aureus ATCC25923; test: MIC by broth dilution, S. aureus ATCC25923; assay type: cell-based; details: Staphylococcus aureus ATCC25923; mean (n = 3)
Experimental: The susceptibility of S. aureus (ATCC25923) to antibiotics and compounds was determined in microplates using the standard broth dilution method in accordance with the recommendations of the Comité de l’AntibioGramme de la Société Française de Microbiologie (CA-SFM) as previously described. Briefly, the minimal inhibitory concentrations (MICs) were determined with an inoculum of 10^5 CFU in 200 µL of Mueller-Hinton broth (MHB) containing two-fold serial dilutions of each drug. […] To determine all MICs, the measurements were independently repeated in triplicate.

[2] = system: Staphylococcus aureus ATCC43300 (MRSA); test: MIC, MRSA ATCC43300 (CO-ADD protocol); assay type: cell-based; details: for MIC: Staphylococcus aureus, Staphylococcus aureus ATCC43300 (MRSA), mean (n = 2), read-out: MIC (µg/mL) MRSA; for anti-MRSA activity (in words): result in words
Excerpt: Additional antimicrobial evaluation against Staphylococcus aureus MRSA (ATCC43300), Pseudomonas aeruginosa (ATCC27853), Escherichia coli (ATCC25922), Klebsiella pneumoniae (ATCC700603), Acinetobacter baumannii (ATCC19606), Candida albicans (ATCC90028), and Cryptococcus neoformans (ATCC208821) was undertaken at the Community for Open Antimicrobial Drug Discovery at The University of Queensland (Australia) according to their standard protocols. For antimicrobial assays, the tested strains were cultured in either Luria broth (LB) (In Vitro Technologies, USB75852, Noble Park North, Australia), nutrient broth (NB) (Becton Dickson, 234000, Macquarie Park, Australia), or cation-adjusted MHB at 37 °C overnight. A sample of culture was then diluted 40-fold in fresh MHB and incubated at 37 °C for 1.5−2 h. The compounds were serially diluted 2-fold across the wells of 96-well plates (Corning 3641, Tewksbury, MA, USA, nonbinding surface), with compound concentrations ranging from 0.015 to 64 μg/mL, plated in duplicate. The resultant mid log phase cultures were diluted to the final concentration of 1 × 10^6 CFU/mL; then, 50 μL was added to each well of the compound containing plates giving a final compound concentration range of 0.008 to 32 μg/mL and a cell density of 5 × 10^5 CFU/mL. All plates were then covered and incubated at 37 °C for 18 h. Resazurin was added at 0.001% final concentration to each well and incubated for 2 h before MICs were read by eye.
(§1) Colistin and vancomycin were used as positive bacterial inhibitor standards for Gram-negative and Gram-positive bacteria, respectively. Fluconazole was used as a positive fungal inhibitor standard for C. albicans and C. neoformans. The antibiotics were provided in 4 concentrations, with 2 above and 2 below its MIC value, and plated into the first 8 wells of column 23 of the 384-well NBS plates. The quality control (QC) of the assays was determined by the antimicrobial controls and the Z′-factor (using positive and negative controls).

[3] = system: Cryptococcus neoformans ATCC208821; test: Antifungal MIC, C. neoformans; assay type: cell-based; details: for MIC: Cryptococcus neoformans ATCC208821, mean (n = 2); for antifungal activity towards C. neoformans (in words): result in words
Experimental: For the antifungal assay, fungi strains were cultured for 3 days on yeast extract-peptone dextrose (YPD) agar at 30 °C. A yeast suspension of 1 × 10^6 to 5 × 10^6 CFU/mL was prepared from five colonies. These stock suspensions were diluted with yeast nitrogen base (YNB) (Becton Dickinson, 233520) broth to a final concentration of 2.5 × 10^3 CFU/mL. The compounds were serially diluted 2-fold across the wells of 96-well plates (Corning 3641, nonbinding surface), with compound concentrations ranging from 0.015 to 64 μg/mL and final volumes of 50 μL, plated in duplicate. Then, 50 μL of the fungi suspension that was previously prepared in YNB broth to the final concentration of 2.5 × 10^3 CFU/mL was added to each well of the compound-containing plates, giving a final compound concentration range of 0.008 to 32 μg/mL. Plates were covered and incubated at 35 °C for 36 h without shaking. C. albicans MICs were determined by measuring the absorbance at OD530. For C. neoformans, resazurin was added at 0.006% final concentration to each well and incubated for a further 3 h before MICs were determined by measuring the absorbance at OD570–600.
as §1

[4] = HEK293 cytotoxicity assay (resazurin); assay type: cell-based, human; details: human; concentration at 50% cytotoxicity on HEK293 cells; mean (n = 2)
Experimental: (§2) For the HEK293 cytotoxicity assay, cells were counted manually in a Neubauer hemocytometer and plated at a density of 5000 cells/well into each well of the 384-well plates containing the 25× (2 μL) concentrated compounds. The medium used was Dulbecco’s modified eagle medium (DMEM) supplemented with 10% fetal bovine serum (FBS). Cells were incubated together with the compounds for 20 h at 37 °C, 5% CO2. To measure cytotoxicity, 5 μL (equals 100 μM final) of resazurin was added to each well after incubation, and incubated for further 3 h at 37 °C with 5% CO2. After final incubation fluorescence intensity was measured as Fex 560/10 nm, em 590/10 nm (F560/590) using a Tecan M1000 Pro monochromator plate reader. CC50 values (concentration at 50% cytotoxicity) were calculated by normalizing the fluorescence readout, with 74 μg/mL tamoxifen as negative control (0%) and normal cell growth as positive control (100%). The concentration-dependent percentage cytotoxicity was fitted to a dose response function (using Pipeline Pilot) and CC50 values determined.

human red blood cells = test: Hemolytic assay; assay type: cell-based; details: for HC10: concentration at 10% hemolytic activity on human red blood cells, mean (n = 2); for hemolytic activity (in words): human red blood cells, result in words
Experimental: Human whole blood was washed three times with 3 volumes of 0.9% NaCl and then resuspended in same to a concentration of 0.5 × 10^8 cells/mL, as determined by manual cell count in a Neubauer hemocytometer. The washed cells were then added to the 384-well compound-containing plates for a final volume of 50 μL. After a 10 min shake on a plate shaker the plates were then incubated for 1 h at 37 °C. After incubation, the plates were centrifuged at 1000 g for 10 min to pellet cells and debris, 25 μL of the supernatant was then transferred to a polystyrene 384-well assay plate. Hemolysis was determined by measuring the supernatant absorbance at […] (OD405). The absorbance was measured using a Tecan M1000 Pro monochromator plate reader. HC10 and HC50 (concentration at 10% and 50% hemolysis, respectively) were calculated by curve fitting the inhibition values vs. log(concentration) using a sigmoidal dose–response function with variable fitting values for top, bottom and slope.

[5] = system: HEK293 human embryonic kidney cells; test: HEK293 cytotoxicity assay (resazurin); assay type: cell-based; details: HEK293; result in words
Experimental: as §2

Structure (SMILES) | MIC [1] [µg/mL] | MIC [2] [µg/mL] | MIC [3] [µg/mL] | CC50 at 20 h [4] [µg/mL] | HC10 (human red blood cells) [µg/mL] | melting point [°C] | anti-MRSA activity (in words) [2] | cytotoxicity (in words) [5] | hemolytic activity (in words) (human red blood cells) | antifungal activity towards C. neoformans (in words) [3]
Brc1ccc2[nH]cc(-c3cncn3CCc3ccccc3)c2c1 [Compound 21, 5-Bromo-3-(1-phenethyl-1H-imidazol-5-yl)-1H-indole] | 6.25 (≈ 17.1 µM) | 16 (≈ 43.7 µM) | 32 (≈ 87.4 µM) | 10.6 (≈ 28.9 µM) | >32 | 110 to 111 | – | – | – | –
COc1ccc(CCn2cncc2-c2c[nH]c3ccccc23)cc1 [Compound 23, 3-(1-(4-Methoxyphenethyl)-1H-imidazol-5-yl)-1H-indole] | 100 (≈ 315 µM) | 32 (≈ 101 µM) | > 32 | 24.5 (≈ 77.2 µM) | >32 | 158 to 159 | – | – | – | –
COc1ccc(CCn2cncc2-c2c[nH]c3ccc(Cl)cc23)cc1 [Compound 26, 5-Chloro-3-(1-(4-methoxyphenethyl)-1H-imidazol-5-yl)-1H-indole] | > 200 | ≤ 0.25 | > 32 | > 32 | >32 | – | promising non-toxic selective anti-MRSA compounds | lack of cytotoxicity; also recorded: lacked cytotoxic or hemolytic properties | lacked cytotoxic or hemolytic properties | –
COc1ccc(CCn2cncc2-c2c[nH]c3ccc(Br)cc23)cc1 [Compound 27, 5-Bromo-3-(1-(4-methoxyphenethyl)-1H-imidazol-5-yl)-1H-indole] | 12.5 (≈ 31.5 µM) | 8 (≈ 20.2 µM) | > 32 | 16 (≈ 40.4 µM) | >32 | 157 to 158 | – | – | – | –
COc1ccc(CCn2cncc2-c2c[nH]c3cc(Br)ccc23)cc1 [Compound 28, 6-Bromo-3-(1-(4-methoxyphenethyl)-1H-imidazol-5-yl)-1H-indole] | 12.5 (≈ 31.5 µM) | 32 (≈ 80.7 µM) | 32 (≈ 80.7 µM) | 15.6 (≈ 39.4 µM) | >32 | 184 to 185 | – | – | – | –
COc1ccc(OC)c(CCn2cncc2-c2c[nH]c3ccc(Cl)cc23)c1 [Compound 32, 5-Chloro-3-(1-(2,5-dimethoxyphenethyl)-1H-imidazol-5-yl)-1H-indole] | 100 (≈ 262 µM) | – | > 32 | > 32 | >32 | – | promising non-toxic selective anti-MRSA compounds | lack of cytotoxicity; also recorded: lacked cytotoxic or hemolytic properties | lacked cytotoxic or hemolytic properties | –
COc1ccc(OC)c(CCn2cncc2-c2c[nH]c3ccc(Br)cc23)c1 [Compound 34, 5-Bromo-3(1-(2,5-dimethoxyphenethyl)-1H-imidazol-5-yl)-1H-indole] | 25 (≈ 58.6 µM) | 16 (≈ 37.5 µM) | > 32 | 6.2 (≈ 14.5 µM) | >32 | 141 to 142 | – | – | – | –
Brc1ccc2c(-c3cncn3CCc3ccc4c(c3)OCO4)c[nH]c2c1 [Compound 42, 3-(1-(2-(Benzo[d][1,3]dioxol-5-yl)ethyl)-1H-imidazol-5-yl)-6-bromo-1H-indole] | 12.5 (≈ 30.5 µM) | 16 (≈ 39 µM) | 32 (≈ 78 µM) | 16.1 (≈ 39.2 µM) | >32 | 194 to 195 | – | – | – | –
COc1ccc2c(-c3cncn3CCc3ccccc3)c[nH]c2c1 [Compound 57, 6-Methoxy-3-(1-phenethyl-1H-imidazol-5-yl)-1H-indole] | > 200 | > 32 | ≤ 0.25 | > 32 | >32 | 48 to 49 | – | lack of cytotoxicity and hemolytic activity | lack of cytotoxicity and hemolytic activity | non-toxic selective antifungals
c1ccc(-c2cncn2Cc2c[nH]c3ccccc23)cc1 [Compound 111, 3-((5-Phenyl-1H-imidazol-1-yl)methyl)-1H-indole] | 50 (≈ 183 µM) | 16 (≈ 58.5 µM) | ≤ 0.25 | > 32 | >32 | 57 to 58 | – | lack of cytotoxicity and hemolytic activity | lack of cytotoxicity and hemolytic activity | non-toxic selective antifungals
